Laboratory results published in US20220305019A1, “PARAXANTHINE-BASED COMPOSITIONS FOR PROMOTING WEIGHT LOSS” (Ingenious Ingredients, LP, priority 2021, published 2022).

Columns and labels:
Type in all cases: in vivo, human
[1] = Appetite visual analog scale (VAS) after oral ingestion, crossover, two participants; design: Appetite Visual Analog Scale / Appetite Visual Analog Scale MEAN: scale not given here; details: for Appetite Visual Analog Scale MEAN: mean 30-180 min
Procedure: All supplements were orally ingested with 8 fluid ounces of cold tap water. The order of administration for all interventions was randomized using a random allocation software to ensure randomization and to avoid order effects. […] All study visits took place between 0600-1000 hours. At least 72 hours of rest will take place between each condition.

[2] = Respiratory quotient (RQ=VCO2/VO2) after oral ingestion, crossover, two participants; details: 100 mg PX
Procedure: (§1) Upon determination of baseline respiratory quotient (RQ=VCO2/VO2) two participants were assigned in a randomized, double-blind, placebo-controlled, crossover fashion to ingest a non-energetic placebo (maltodextrin) or a 100 mg paraxanthine (PX). All supplements were orally ingested with 8 fluid ounces of cold tap water. The order of administration for all interventions was randomized using a random allocation software to ensure randomization and to avoid order effects. After ingestion, participants completed all assessments in an identical fashion 30, 60, 90, 120, and 180 minutes after ingestion of their assigned supplement. All study visits took place between 0600-1000 hours. At least 72 hours of rest took place between each condition.
The lower the RQ, the more fat that is being oxidized for body energy needs. The closer to 1.0 the more carbohydrate is being burned for energy needs. If numbers are lower, more fat is being oxidized. PX reduced the respiratory quotient by more than 10% compared to placebo, increasing fat oxidation (“fat burning”).

[3] = Swagger visual analog scale (VAS) after oral ingestion, crossover, two participants; design: Swagger (Visual Analog Scale) / Swagger VAS MEAN: scale not given here; details: 100 mg PX
Procedure: as §1, with “All” for “Upon determination of baseline respiratory quotient (RQ=VCO2/VO2) two participants were assigned in a randomized, double-blind, placebo-controlled, crossover fashion to ingest a non-energetic placebo (maltodextrin) or a 100 mg paraxanthine (PX). All”

[4] = Confidence visual analog scale (VAS) after oral ingestion, crossover, two participants; design: Confidence (Visual Analog Scale) / Confidence VAS MEAN: scale not given here; details: 100 mg PX
Procedure: as §1, with “All” for “Upon determination of baseline respiratory quotient (RQ=VCO2/VO2) two participants were assigned in a randomized, double-blind, placebo-controlled, crossover fashion to ingest a non-energetic placebo (maltodextrin) or a 100 mg paraxanthine (PX). All”

[5] = Self-reported swagger after consuming paraxanthine (individual reports); details: person

For Cn1c(=O)[nH]c2ncn(C)c2c1=O [PX, paraxanthine], the “reduction of mean appetite compared to placebo” value ([1]; 100 mg PX) was 38.5%, the “appetite reduction compared to CA” value ([1]; 100 mg PX and 300 mg PX vs 200 mg CA) was “greater reduction in appetite compared to CA” and the “Appetite Visual Analog Scale” value ([1]; 100 mg PX, 30 min, person one) was 29. For the same molecule, the “Appetite Visual Analog Scale” value ([1]; 100 mg PX, 30 min, person two) was 70, the “Appetite Visual Analog Scale” value ([1]; 100 mg PX, 60 min, person one) was 27 and the “Appetite Visual Analog Scale” value ([1]; 100 mg PX, 60 min, person two) was 65. For the same molecule, the “Appetite Visual Analog Scale” value ([1]; 100 mg PX, 90 min, person one) was 25, the “Appetite Visual Analog Scale” value ([1]; 100 mg PX, 90 min, person two) was 60 and the “Appetite Visual Analog Scale” value ([1]; 100 mg PX, 120 min, person one) was 29. The “Appetite Visual Analog Scale” value ([1]; 100 mg PX, 120 min, person two) was 85, the “Appetite Visual Analog Scale” value ([1]; 100 mg PX, 180 min, person one) was 35 and the “Appetite Visual Analog Scale” value ([1]; 100 mg PX, 180 min, person two) was 90. The “Appetite Visual Analog Scale MEAN” value ([1]; 100 mg PX, Average of both) was 51.5, the “Appetite Visual Analog Scale MEAN” value ([1]; 100 mg PX, person one) was 29.0 and the “Appetite Visual Analog Scale MEAN” value ([1]; 100 mg PX, person two) was 74.0. The “Appetite VAS mean Δ vs. PLA” value ([1]; 100 mg PX, person one) was −65.2, the “Appetite VAS mean Δ vs. PLA” value ([1]; 100 mg PX, person two) was “+0.8” and the “reduction of mean appetite compared to placebo” value ([1]; 300 mg PX) was 43.1%. For the same molecule, the “Appetite Visual Analog Scale” value ([1]; 300 mg PX, 30 min, person one) was 24, the “Appetite Visual Analog Scale” value ([1]; 300 mg PX, 30 min, person two) was 65 and the “Appetite Visual Analog Scale” value ([1]; 300 mg PX, 60 min, person one) was 30. The “Appetite Visual Analog Scale” value ([1]; 300 mg PX, 60 min, person two) was 60, the “Appetite Visual Analog Scale” value ([1]; 300 mg PX, 90 min, person one) was 29 and the “Appetite Visual Analog Scale” value ([1]; 300 mg PX, 90 min, person two) was 55. The “Appetite Visual Analog Scale” value ([1]; 300 mg PX, 120 min, person one) was 27, the “Appetite Visual Analog Scale” value ([1]; 300 mg PX, 120 min, person two) was 60 and the “Appetite Visual Analog Scale” value ([1]; 300 mg PX, 180 min, person one) was 26. For the same molecule, the “Appetite Visual Analog Scale” value ([1]; 300 mg PX, 180 min, person two) was 80, the “Appetite Visual Analog Scale MEAN” value ([1]; 300 mg PX, Average of both) was 45.6 and the “Appetite Visual Analog Scale MEAN” value ([1]; 300 mg PX, person one) was 27.2. The “Appetite Visual Analog Scale MEAN” value ([1]; 300 mg PX, person two) was 64.0, the “Appetite VAS mean Δ vs. 100 mg PX” value ([1]; 300 mg PX, person one) was −1.8 and the “Appetite VAS mean Δ vs. PLA” value ([1]; 300 mg PX, person one) was −67.0. For the same molecule, the “Appetite VAS mean Δ vs. 100 mg PX” value ([1]; 300 mg PX, person two) was −10.0, the “Appetite VAS mean Δ vs. PLA” value ([1]; 300 mg PX, person two) was −9.2 and the “reduction of respiratory quotient compared to placebo” value [2] was “more than 10%”. The “Respiratory Quotient” value ([2]; 30 min, person one) was 0.68, the “Respiratory Quotient” value ([2]; 30 min, person two) was 0.81 and the “Respiratory Quotient” value ([2]; 60 min, person one) was 0.66. For the same molecule, the “Respiratory Quotient” value ([2]; 60 min, person two) was 0.74, the “Respiratory Quotient” value ([2]; 90 min, person one) was 0.72 and the “Respiratory Quotient” value ([2]; 90 min, person two) was 0.74. The “Respiratory Quotient” value ([2]; 120 min, person one) was 0.70, the “Respiratory Quotient” value ([2]; 120 min, person two) was 0.69 and the “Respiratory Quotient” value ([2]; 180 min, person one) was 0.77. The “Respiratory Quotient” value ([2]; 180 min, person two) was 0.70, the “Respiratory Quotient MEAN” value ([2]; Average of both) was 0.725 and the “Respiratory Quotient MEAN” value ([2]; person one) was 0.71. For the same molecule, the “Respiratory Quotient MEAN Δ from 0” value ([2]; person one) was −0.014, the “Respiratory Quotient MEAN” value ([2]; person two) was 0.74 and the “Respiratory Quotient MEAN Δ from 0” value ([2]; person two) was −0.004. The “Respiratory Quotient” value ([2]; time 0 (baseline), person one) was 0.72, the “Respiratory Quotient” value ([2]; time 0 (baseline), person two) was 0.74 and the “increase of swagger over 200 mg caffeine ingestion” value [3] was 26%. For the same molecule, the “increase of swagger over placebo” value [3] was 21%, the “Swagger (Visual Analog Scale)” value ([3]; 30 min, person one) was 91 and the “Swagger (Visual Analog Scale)” value ([3]; 30 min, person two) was 71. For the same molecule, the “Swagger (Visual Analog Scale)” value ([3]; 60 min, person one) was 80, the “Swagger (Visual Analog Scale)” value ([3]; 60 min, person two) was 71 and the “Swagger (Visual Analog Scale)” value ([3]; 90 min, person one) was 89. The “Swagger (Visual Analog Scale)” value ([3]; 90 min, person two) was 80, the “Swagger (Visual Analog Scale)” value ([3]; 120 min, person one) was 81 and the “Swagger (Visual Analog Scale)” value ([3]; 120 min, person two) was 75. For the same molecule, the “Swagger (Visual Analog Scale)” value ([3]; 180 min, person one) was 90, the “Swagger (Visual Analog Scale)” value ([3]; 180 min, person two) was 70 and the “Swagger VAS MEAN” value ([3]; Average of both) was 79.8. For the same molecule, the “Swagger VAS MEAN” value ([3]; person one) was 86.2, the “Swagger VAS mean Δ vs. PLA” value ([3]; person one) was “+7.6” and the “Swagger VAS MEAN” value ([3]; person two) was 73.4. The “Swagger VAS mean Δ vs. PLA” value ([3]; person two) was “+20.0”, the effect on confidence [4] was “failed to increase confidence” and the “Confidence (Visual Analog Scale)” value ([4]; 30 min, person one) was 70. The “Confidence (Visual Analog Scale)” value ([4]; 30 min, person two) was 70, the “Confidence (Visual Analog Scale)” value ([4]; 60 min, person one) was 80 and the “Confidence (Visual Analog Scale)” value ([4]; 60 min, person two) was 70. For the same molecule, the “Confidence (Visual Analog Scale)” value ([4]; 90 min, person one) was 89, the “Confidence (Visual Analog Scale)” value ([4]; 90 min, person two) was 65 and the “Confidence (Visual Analog Scale)” value ([4]; 120 min, person one) was 81. For the same molecule, the “Confidence (Visual Analog Scale)” value ([4]; 120 min, person two) was 75, the “Confidence (Visual Analog Scale)” value ([4]; 180 min, person one) was 90 and the “Confidence (Visual Analog Scale)” value ([4]; 180 min, person two) was 70. The “Confidence VAS MEAN” value ([4]; Average of both) was 76.0, the “Confidence VAS MEAN” value ([4]; person one) was 82.0 and the “Confidence VAS mean Δ vs. PLA” value ([4]; person one) was “+0.6”. The “Confidence VAS MEAN” value ([4]; person two) was 70.0, the “Confidence VAS mean Δ vs. PLA” value ([4]; person two) was −1.0 and the self-reported swagger ([5]; 50 mg daily during two weeks) was “increase in swagger”. For the same molecule, the self-reported swagger ([5]; 100 mg, workplace and team sports) was “significant increases in swagger”, the self-reported swagger ([5]; 200 mg) was “an increase in swagger” and the self-reported swagger ([5]; 400 mg) was “a significant boost in swagger”.
